Measured values as given in publication PMC8006714 (Chemical Communications (Cambridge, England), 2021).
Read-outs that look alike come from different tables or passages of the source.

Experiments:
SARS-CoV-2 M^pro [1] = biological target: T1, SARS-CoV-2 M^pro (Severe acute respiratory syndrome coronavirus 2, UniProt P0DTD1); experiment: biochemical; format: biochemical; settings: for M^pro inhibition at single concentrations (in words): 20, 50 and 100 µM β-lactam, 30 min or 60 min preincubation (Fig. S17)
SARS-CoV-2 M^pro [2] = biological target: T1, SARS-CoV-2 M^pro; format: binding; settings: for covalent reaction with M^pro (protein observed SPE-MS): 1 µM Mpro, 100 fold excess of β-lactam, 25 min to 24 h
[3] = read-out: % Mpro inhibition at 20 µM

Compound: O=C(N[C@@H](Cc1ccccc1)C(=O)CCl)OCc1ccccc1 [N-Carbobenzyloxy-L-phenylanlanyl chloromethyl ketone]
- % Mpro inhibition at 20 µM (SARS-CoV-2 M^pro [1]): 100.0%

Compound: O=C1C(SCCO)=C(SCCO)C(=O)c2ccccc21 [NSC 95397]
- % Mpro inhibition at 20 µM (SARS-CoV-2 M^pro [1]): 99.0%
- covalent modification of M^pro preincubated with N3 (active site selectivity) (SARS-CoV-2 M^pro [2]; 1 μM M^pro preincubated with 3 μM N3, 20 μM inhibitor): does not selectively bind to the M pro active site
- covalent modification of M^pro (protein observed SPE-MS) (SARS-CoV-2 M^pro [2]; 1 μM M^pro, 20 μM inhibitor, 20 mM HEPES pH 7.5, 50 mM NaCl): reacts with Mpro at multiple positions

Compound: CCN[C@@H]1C[C@H](N)[C@@H](O[C@H]2OC(CN)=CC[C@H]2N)[C@H](O)[C@H]1O[C@H]1OC[C@](C)(O)[C@H](NC)[C@H]1O.CCN[C@@H]1C[C@H](N)[C@@H](O[C@H]2OC(CN)=CC[C@H]2N)[C@H](O)[C@H]1O[C@H]1OC[C@](C)(O)[C@H](NC)[C@H]1O.O=S(=O)(O)O.O=S(=O)(O)O.O=S(=O)(O)O.O=S(=O)(O)O.O=S(=O)(O)O [Netilmicin sulfate]
- % Mpro inhibition at 20 µM (SARS-CoV-2 M^pro [1]): 89.1%

Compound: O=[N+]([O-])c1ccc(O)c2ncccc12 [Nitroxoline]
- inhibition at 20 µM (SARS-CoV-2 M^pro [1]; read-out: % Mpro inhibition at 20 µM, library of FDA-approved small molecules, 20 µM compound, […] Mpro, 2.0 µM TSAVLQ/SGFRK-NH2): 96%

Compound: CC(Cc1ccc(O)c(O)c1)C(C)Cc1ccc(O)c(O)c1 (stereo not shown) [Nordihydroguaiaretic acid]
- % Mpro inhibition at 20 µM (SARS-CoV-2 M^pro [1]): 97.8%

Compound: Cc1c(-c2cnccn2)ssc1=S [Oltipraz]
- inhibition at 20 µM (SARS-CoV-2 M^pro [1]; library of FDA-approved small molecules, 20 µM compound, […] Mpro, 2.0 µM TSAVLQ/SGFRK-NH2, read-out: % Mpro inhibition at 20 µM): 99.6%

Compound: Oc1cc(O)cc(/C=C/c2ccc(O)c(O)c2)c1 [Piceatannol]
- inhibition at 20 µM (SARS-CoV-2 M^pro [1]; [3]): 93.8%

Compound: CC[N+]1(C)CCCC(OC(=O)C(O)(c2ccccc2)c2ccccc2)C1 (stereo not shown) [Pipenzolate bromide]
- inhibition at 20 µM (SARS-CoV-2 M^pro [1]; [3]): 100%

Compound: Oc1ccccc1O [Pyrocatechol]
- % Mpro inhibition at 20 µM (SARS-CoV-2 M^pro [1]): 85.4

Compound: C[n+]1cc2c3c(ccc2c2ccc4cc5c(cc4c21)OCO5)OCO3 [Sanguinarium chloride, Sanguinarine chloride]
- % Mpro inhibition at 20 µM (SARS-CoV-2 M^pro [1]): 98.7%
- inhibition at 20 µM (SARS-CoV-2 M^pro [1]; [3]): 100%

Compound: Br.CN=c1nc(-c2ccccc2)n(-c2ccccc2)s1 [Sch-202676 hydrobromide]
- % Mpro inhibition at 20 µM (SARS-CoV-2 M^pro [1]): 100.0%

Compound: CC(C)N(CCC(=O)c1ccc2ccccc2c1)Cc1ccccc1.Cl [ZM 39923 hydrochloride]
- % Mpro inhibition at 20 µM (SARS-CoV-2 M^pro [1]): 96.9%

Compound: CCN1CCN(C(=O)N[C@@H](C(=O)N[C@]2(OC)C(=O)N3C(C(=O)O)=C(CSc4nnnn4C)CS[C@@H]32)[C@H](C)O)C(=O)C1=O [cefbuperazone]
- covalent reaction with M^pro (protein observed SPE-MS) (SARS-CoV-2 M^pro [2]): evidence for more than one reaction was accrued

Compound: CO[C@@]1(NC(=O)C2SC(=C(C(N)=O)C(=O)O)S2)C(=O)N2C(C(=O)O)=C(CSc3nnnn3C)CS[C@@H]21 (stereo partly shown) [cefotetan]
- covalent reaction with M^pro (protein observed SPE-MS) (SARS-CoV-2 M^pro [2]): evidence for more than one reaction was accrued

Compound: CO[C@@]1(NC(=O)Cc2cccs2)C(=O)N2C(C(=O)O)=C(COC(N)=O)CS[C@@H]21 [cefoxitin]
- covalent reaction with M^pro (protein observed SPE-MS) (SARS-CoV-2 M^pro [2]): evidence for more than one reaction was accrued

Compound: CO/N=C(\C(=O)N[C@@H]1C(=O)N2C(C(=O)O)=C(CSC(=O)c3ccco3)CS[C@H]12)c1csc(N)n1 [ceftiofur]
- M^pro inhibition at single concentrations (in words) (SARS-CoV-2 M^pro [1]): weak time dependent inhibition

Compound: CC1=C(C(=O)O)N2C(=O)[C@@H](NC(=O)[C@H](N)c3ccccc3)[C@H]2SC1 [cephalexin]
- M^pro inhibition (in words) (SARS-CoV-2 M^pro [1]; SPE-MS, concentration not given): no Mpro inhibition was observed

Compound: [Cl-].[NH3+][Pt-2]([NH3+])([Cl])[n+]1ccccc1 (stereo not drawn) [cis-Diammine(pyridine)chloroplatinum(II) chloride]
- % Mpro inhibition at 20 µM (SARS-CoV-2 M^pro [1]): 99.6%

Compound: O=C(O)[C@H]1/C(=C/CO)O[C@@H]2CC(=O)N21 [clavulanate]
- covalent reaction with M^pro (protein observed SPE-MS) (SARS-CoV-2 M^pro [2]): (partial) inhibitor fragmentation was observed

Compound: O=C1[C@H](CC[C@H](O)c2ccc(F)cc2)[C@@H](c2ccc(O)cc2)N1c1ccc(F)cc1 [ezetimibe]
- M^pro inhibition at single concentrations (in words) (SARS-CoV-2 M^pro [1]): weak time dependent inhibition

Compound: CO[C@@]1(NC(=O)C(C(=O)O)c2ccc(O)cc2)C(=O)N2C(C(=O)O)=C(CSc3nnnn3C)CO[C@@H]21 (stereo partly shown) [moxalactam]
- covalent reaction with M^pro (protein observed SPE-MS) (SARS-CoV-2 M^pro [2]): (partial) inhibitor fragmentation was observed

Compound: CC1(C)S[C@@H]2[C@H](NC(=O)Cc3ccccc3)C(=O)N2[C@H]1C(=O)O [penicillin G]
- M^pro inhibition at single concentrations (in words) (SARS-CoV-2 M^pro [1]): No inhibition was observed

Compound: CC1(C)S[C@@H]2[C@H](NC(=O)COc3ccccc3)C(=O)N2[C@H]1C(=O)O [penicillin V]
- M^pro inhibition at single concentrations (in words) (SARS-CoV-2 M^pro [1]): No inhibition was observed

Compound: CC1(C)S[C@@H]2[C@H](NC(=O)[C@H](N)c3ccccc3)C(=O)N2[C@H]1C(=O)OC1OC(=O)c2ccccc21 (stereo partly shown) [talampicillin]
- M^pro inhibition at single concentrations (in words) (SARS-CoV-2 M^pro [1]): weak time dependent inhibition

Compound: C[C@]1(Cn2ccnn2)[C@H](C(=O)O)N2C(=O)C[C@H]2S1(=O)=O [tazobactam]
- covalent reaction with M^pro (protein observed SPE-MS) (SARS-CoV-2 M^pro [2]): increased over time

Compound: (R)-(−)-2,10,11-Trihydroxyaporphine hybrobromide
- % Mpro inhibition at 20 µM (SARS-CoV-2 M^pro [1]): 99.6%

Compound: Chlorophyllide copper complex sodium salt
- % Mpro inhibition at 20 µM (SARS-CoV-2 M^pro [1]): 86.5%

Compound: Colistin sulfate
- % Mpro inhibition at 20 µM (SARS-CoV-2 M^pro [1]): 95.8%
